# What was measured:
# [1] = system: S. pneumoniae; test: MIC, resazurin broth microdilution; type: cell-based, Streptococcus pneumoniae
# [2] = system: E. coli; test: MIC, resazurin broth microdilution; type: cell-based, Escherichia coli; conditions: media LB
# [3] = system: L. monocytogenes; test: MIC, resazurin broth microdilution; type: cell-based, Listeria monocytogenes; conditions: media BHI
# [4] = system: C. ammoniagenes; test: MIC, resazurin broth microdilution; type: cell-based, Corynebacterium ammoniagenes; conditions: for MIC: C. ammoniagenes
# [5] = target: T1, CaFADS (Corynebacterium ammoniagenes, UniProt Q59263); test: Differential scanning fluorescence (thermal denaturation) binding to CaFADS
# T1 construct: made in house; host or cells: Escherichia coli BL21(DE3)
# T1 sequence (Q59263 whole entry): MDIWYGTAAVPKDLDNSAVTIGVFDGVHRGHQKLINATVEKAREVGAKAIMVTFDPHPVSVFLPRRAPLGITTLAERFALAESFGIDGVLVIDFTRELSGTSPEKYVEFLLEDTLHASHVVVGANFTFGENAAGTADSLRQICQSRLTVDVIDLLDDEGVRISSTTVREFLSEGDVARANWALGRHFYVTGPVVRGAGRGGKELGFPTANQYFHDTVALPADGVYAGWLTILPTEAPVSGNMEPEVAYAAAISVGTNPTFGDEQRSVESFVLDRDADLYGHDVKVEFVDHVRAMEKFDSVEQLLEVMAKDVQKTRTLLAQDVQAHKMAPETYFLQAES
# Summary of the method: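 Thermal shift with 2 μM CaFADS, compound at 5-250 μM (2% DMSO) and 5x SYPRO Orange in 20 mM PIPES pH 7.0, 10 mM MgCl2, heated 25-100 °C at 1 °C/min. Kd estimated by fitting ligand-induced shift in midpoint denaturation temperature (ΔTm) to a stabilization equation.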
# [6] = system: HeLa; test: MTT cytotoxicity assay; type: cell-based; conditions: 24 h, 4-512 μM range, read-out: IC50 (concentration causing 50% inhibition of cellular viability)
# Method: (§1) The (4,5-dimethylthiazol-2-yl)-2,5-diphenyl tetrazolium bromide (MTT) assay was used to determine the effect of the compounds in cell growth and viability of HeLa (ATCC CCL-2) and A549 (ATCC CCL-185) eukaryotic cell lines. Both cell lines were routinely cultured in high-glucose DMEM (Lonza) supplemented with 10% fetal bovine serum, 4 mM glutamine GlutaMAX™ (Gibco) and 1x non-essential amino acids (Gibco), under 5% CO2 at 37 °C in a humidified atmosphere. For the MTT assay, cells were initially seeded in 96-well flat-bottom plates at a density of 10^4 cells per well and cultured for 24 h. Cultures were routinely tested for mycoplasma presence. The compounds were dissolved in fresh culture medium, added in a 4-512 μM concentration range (1% DMSO final concentration), and incubated with the cells for 24 h. Finally, formazan crystals were dissolved with pure DMSO and MTT absorbance was measured at 570 and 650 nm. Untreated cells were included as control of 100% viability. Assays were done in quadruplicate.
# [7] = system: A549; test: MTT cytotoxicity assay; type: cell-based; conditions: 24 h, 4-512 μM range, read-out: IC50 (concentration causing 50% inhibition of cellular viability)
# Method: as §1
# [8] = system: M. smegmatis; test: MIC, resazurin broth microdilution; type: cell-based, Mycobacterium smegmatis; conditions: media 7H9G-ADC
# [9] = system: M. tuberculosis; test: MIC, resazurin broth microdilution; type: cell-based, Mycobacterium tuberculosis
# [10] = system: Bacillus spp.; test: MIC, resazurin broth microdilution; type: cell-based, Bacillus sp.; conditions: media MH
# [11] = system: C. glutamicum; test: MIC, resazurin broth microdilution; type: cell-based, Corynebacterium glutamicum; conditions: media BHI
# [12] = system: Mycobacteriumspecies; test: MIC against Mycobacterium species (S5 Fig legend); type: cell-based
# [13] = target: T2, FMNAT activity of CaFADS (Corynebacterium ammoniagenes, UniProt Q59263); test: Inhibition of the FMNAT activity of CaFADS; type: biochemical; conditions: at the maximal compound concentration assayed (250 μM)
# T2 construct: made in house; host or cells: Escherichia coli BL21(DE3)
# T2 sequence (Q59263 whole entry): as above
# Method: To determine the compound’s ability to inhibit the RFK and/or the FMNAT activities of CaFADS, both enzymatic activities were quantitatively measured in the absence and presence of the compounds following previously described protocols. Reaction mixtures contained 50 μM ATP, 5 μM RF in 20 mM PIPES, pH 7.0, 0.8 mM MgCl2, when assaying the RFK activity, and 50 μM ATP, 10 μM FMN in 20 mM PIPES, pH 7.0, 10 mM MgCl2 when measuring the FMNAT reaction. Each compound was tested at 250 μM (0.5% residual final concentration of DMSO) for each of the two enzymatic reactions. The samples were pre-incubated at 25 °C, the reaction was then initiated by the addition of ∼ 40 nM CaFADS (final concentration) and allowed for 1 min. Finally, the reaction was stopped by boiling the samples for 5 min and the denatured protein was eliminated through centrifugation. The transformation of RF into FMN and FAD (RFK activity) and of FMN into FAD (FMNAT activity) was evaluated through flavins separation by HPLC (Waters), as previously described. All the experiments were performed in triplicate. To evaluate the potency of compounds as inhibitors, we took advantage of the decrease in quantum yield of fluorescence when FMN is transformed into FAD, which allows to follow such transformation in a continuous system. Measurements were carried out using a microplate reader Synergy HT multimode plate reader (Biotek) with BRAND 96-well plates pure Grade. Reaction mixtures contained 5 μM RF or FMN, and 50 μM ATP in 20 mM PIPES, pH 7.0, 10 mM MgCl2, and the inhibitor compound in a 5-250 μM concentration range (2% residual final concentration of DMSO). Reactions were initiated through addition of 0.4 μM CaFADS, being the final reaction volume 100 μL. Flavin fluorescence (excitation at 440 nm and emission at 530 nm) was registered at 25 °C, every 50 s during 15 min. The fluorescence change per time unit (ΔF/Δt) was calculated as the slope of the resulting fluorescence decays recorded between 0 and 6 min (linear decay of the fluorescence). Controls which contained the reaction mixture without the enzyme and without any potential CaFADS inhibitory compound were included in the assay and referred as the 0% and 100% of enzymatic activity, respectively. IC50 was calculated as the concentration of compound required for a 50% inhibition of the enzymatic activity.
# [14] = system: P. aeruginosa; test: MIC, resazurin broth microdilution; type: cell-based, Pseudomonas aeruginosa; conditions: media MH
# [15] = system: C. diphteriae; test: MIC, resazurin broth microdilution; type: cell-based, Corynebacterium diphteriae
# [16] = system: S. thyphimurium; test: MIC, resazurin broth microdilution; type: cell-based, Salmonella thyphimurium; conditions: media MH
compound,measurement,setting,value
"O=C(Nc1ccccc1C(=O)O)OCC1c2ccccc2-c2ccccc21 [Compound C5, 2-{[(9H-9-fluorenylmethoxy)carbonyl]amino}benzoic acid]",MIC,[1]; media BHI,128 µM
same,MIC,[1]; media MH,256 µM
same,MIC,[2],> 64 µM
same,MIC,[3],> 64 µM
same,MIC,[4]; media BHI,> 64 µM
same,MIC,[4]; media MH,32 µM
same,MIC,[4]; media MH+DFO,32 µM
same,MIC,[4]; media MH+DIP,32 µM
same,MIC,[4]; media MH+DIP+DFO,32 µM
same,MIC (μM) C. ammoniagenes,[4]; Table 3,32 µM
same,Tm shift of CaFADS thermal denaturation,"[5]; 2 μM CaFADS, compound up to 250 μM",shifted it to lower values
same,Kd,"[5]; from differential scanning fluorescence data fitted to Eq 2, 20 mM PIPES pH 7.0, 10 mM MgCl2, 2% DMSO, n = 3, mean ± SD",1.7 ± 0.7 µM
same,IC50,[6],> 512 µM
same,IC50,[7],> 512 µM
same,MIC,[8],> 256 µM
same,MIC,"[9]; M. tuberculosis, media 7H9G-ADC",128 µM
same,MIC (μM) M. tuberculosis,[9]; Table 3,128 µM
same,MIC,[10],32 µM
same,MIC,[11],32 µM
same,MIC Mycobacterium species,[12],lower than 256 μM
same,inhibition of the FMNAT activity of CaFADS,[13],over 90%
same,MIC,[14],> 256 µM
same,MIC,[15]; media BHI,64 µM
same,MIC,[15]; media MH,32 µM
same,MIC,[16],> 256 µM

# — paper PMC7449411, “In silico discovery and biological validation of ligands of FAD synthase, a promising new antimicrobial target” (PLoS Computational Biology, 2020)
